Experimental data as given in ChEMBL document CHEMBL1201862, “PubChem BioAssay data set” (2004).
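Grown in 96-well plates, cells were treated for 48 hours with each compound at five concentrations. Insufficient inhibition: endpoint recorded as highest concentration tested. The concentration for 50% growth inhibition is given as GI50.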 Calls of active or inactive are those of the source. No stated cut-off is given here; in the data, active = GI50 up to about 1.1 µM and inactive = higher.

What was measured:
Test in all cases: inhibition of tumour cell growth, NCI panel, 48 h
[1] = system: HCT-15
[2] = system: UACC-62
[3] = system: Hs-578T
[4] = system: NCI/ADR-RES
[5] = system: ACHN
[6] = system: PC-3
[7] = system: OVCAR-8
[8] = system: LOX IMVI
[9] = system: HCT-116
[10] = system: SN12C
[11] = system: SF-539
[12] = system: SF-268
[13] = system: CCRF-CEM
[14] = system: RXF 393
[15] = system: BT-549
[16] = system: M14
[17] = system: DU-145
[18] = system: SK-OV-3
[19] = system: COLO 205
[20] = system: CAKI-1
[21] = system: HL-60
[22] = system: SW-620
[23] = system: T47D
[24] = system: HCC 2998
[25] = system: HT-29
[26] = system: NCI-H460
[27] = system: U-251
[28] = system: OVCAR-4
[29] = system: SK-MEL-5
[30] = system: OVCAR-3
[31] = system: A549
[32] = system: RPMI-8226
[33] = system: SR
[34] = system: K562
[35] = system: IGROV-1
[36] = system: UO-31
[37] = system: MCF7
[38] = system: NCI-H23
[39] = system: HOP-92
[40] = system: Malme-3M
[41] = system: MDA-MB-435
[42] = system: TK-10
[43] = system: EKVX
[44] = system: SK-MEL-28
[45] = system: HOP-62
[46] = system: MDA-N
[47] = system: MDA-MB-231
[48] = system: 786-0
[49] = system: MOLT-4
[50] = system: NCI-H226
[51] = system: A498
[52] = system: SF-295
[53] = system: SNB-19
[54] = system: SK-MEL-2
[55] = system: OVCAR-5
[56] = system: UACC-257
[57] = system: KM12

In the case of COP(=O)(OC)C(NC=O)P(=O)(OC)OC, the GI50 [1] is reported as > 100 µM, the GI50 [2] is reported as > 100 µM (inactive) and the GI50 [3] is reported as > 100 µM (inactive). For the same compound, the GI50 [4] was > 100 µM (inactive), the GI50 [5] was > 100 µM (inactive) and the GI50 [6] was > 100 µM (inactive). For the same compound, the GI50 [7] was > 100 µM (inactive), the GI50 [8] was > 100 µM (inactive) and the GI50 [9] was > 100 µM (inactive). The GI50 [10] was > 100 µM (inactive), the GI50 [11] was > 100 µM (inactive) and the GI50 [12] was > 100 µM (inactive). The GI50 [13] was > 100 µM (inactive), the GI50 [14] was > 100 µM (inactive) and the GI50 [15] was > 100 µM (inactive). For the same compound, the GI50 [16] was > 100 µM (inactive), the GI50 [17] was > 100 µM (inactive) and the GI50 [18] was > 100 µM (inactive). For the same compound, the GI50 [19] was > 100 µM (inactive), the GI50 [20] was > 100 µM (inactive) and the GI50 [21] was > 100 µM (inactive). For the same compound, the GI50 [22] was > 100 µM (inactive), the GI50 [23] was > 100 µM (inactive) and the GI50 [24] was > 100 µM (inactive). The GI50 [25] was > 100 µM (inactive), the GI50 [26] was > 100 µM (inactive) and the GI50 [27] was > 100 µM (inactive). For the same compound, the GI50 [28] was > 100 µM (inactive), the GI50 [29] was > 100 µM (inactive) and the GI50 [30] was > 100 µM (inactive). For the same compound, the GI50 [31] was > 100 µM (inactive), the GI50 [32] was > 100 µM (inactive) and the GI50 [33] was > 100 µM (inactive). The GI50 [34] was > 100 µM (inactive), the GI50 [35] was > 100 µM (inactive) and the GI50 [36] was > 100 µM (inactive). For the same compound, the GI50 [37] was > 100 µM (inactive), the GI50 [38] was > 100 µM (inactive) and the GI50 [39] was > 100 µM (inactive). The GI50 [40] was > 100 µM (inactive), the GI50 [41] was > 100 µM (inactive) and the GI50 [42] was > 100 µM (inactive). For the same compound, the GI50 [43] was > 100 µM (inactive), the GI50 [44] was > 100 µM (inactive) and the GI50 [45] was > 100 µM (inactive). For the same compound, the GI50 [46] was > 100 µM (inactive), the GI50 [47] was > 100 µM (inactive) and the GI50 [48] was > 100 µM (inactive). For the same compound, the GI50 [49] was > 100 µM (inactive), the GI50 [50] was > 100 µM (inactive) and the GI50 [51] was > 100 µM (inactive). For the same compound, the GI50 [52] was > 100 µM (inactive) and the GI50 [53] was > 100 µM (inactive).

With NC(=S)N/N=C(/C(=O)Nc1nc2ccc([N+](=O)[O-])cc2s1)C1C(=O)NC(=S)NC1=O the GI50 [1] was 42.7 µM, the GI50 [2] was > 100 µM (inactive) and the GI50 [3] was 27.7 µM (inactive). For the same compound, the GI50 [4] was > 100 µM (inactive), the GI50 [5] was 59.4 µM (inactive) and the GI50 [6] was 63.1 µM (inactive). The GI50 [7] was > 100 µM (inactive), the GI50 [8] was > 100 µM (inactive) and the GI50 [54] was > 100 µM (inactive). For the same compound, the GI50 [9] was > 100 µM (inactive), the GI50 [10] was > 100 µM (inactive) and the GI50 [11] was 49 µM (inactive). The GI50 [12] was 88.9 µM (inactive), the GI50 [13] was > 100 µM (inactive) and the GI50 [14] was 48.6 µM (inactive). For the same compound, the GI50 [15] was 70.1 µM (inactive), the GI50 [16] was > 100 µM (inactive) and the GI50 [17] was > 100 µM (inactive). For the same compound, the GI50 [55] was 55.3 µM (inactive), the GI50 [18] was > 100 µM (inactive) and the GI50 [19] was > 100 µM (inactive). The GI50 [20] was 45.8 µM (inactive), the GI50 [21] was > 100 µM (inactive) and the GI50 [22] was > 100 µM (inactive). The GI50 [23] was 47.4 µM (inactive), the GI50 [24] was 56 µM (inactive) and the GI50 [25] was > 100 µM (inactive). For the same compound, the GI50 [26] was 56.1 µM (inactive), the GI50 [27] was > 100 µM (inactive) and the GI50 [28] was 23.7 µM (inactive). The GI50 [56] was > 100 µM (inactive), the GI50 [30] was > 100 µM (inactive) and the GI50 [31] was > 100 µM (inactive). The GI50 [32] was > 100 µM (inactive), the GI50 [33] was > 100 µM (inactive) and the GI50 [34] was > 100 µM (inactive). The GI50 [36] was 63.8 µM (inactive), the GI50 [37] was > 100 µM (inactive) and the GI50 [38] was > 100 µM (inactive). For the same compound, the GI50 [39] was 77.6 µM (inactive), the GI50 [41] was > 100 µM (inactive) and the GI50 [57] was > 100 µM (inactive). The GI50 [44] was > 100 µM (inactive), the GI50 [46] was > 100 µM (inactive) and the GI50 [47] was > 100 µM (inactive). The GI50 [48] was > 100 µM (inactive), the GI50 [49] was > 100 µM (inactive) and the GI50 [50] was 33.2 µM (inactive). For the same compound, the GI50 [51] was 72.3 µM (inactive), the GI50 [52] was 42.2 µM (inactive) and the GI50 [53] was 76.6 µM (inactive).
